The values below come from ChEMBL document CHEMBL3886147 (2015).

Structures are written as SMILES. Values joined by “and” are separate entries in the source; they are usually repeats but may differ in a detail not shown here. Equal values may be shown once.

Assay [1] deals with Beta-lactamase TEM (Bacteria, UniProt P62593). Briefly: (§1) Assays are performed with beta -lactamases expressed in the pET system (Novagen, San Diego, Calif.) without signal peptides. They contain an N-terminal hexa-Histidine tag that is used for purification on Ni-NTA (Qiagen, Hilden, Germany). The compounds are prepared as 50 mM stocks in DMSO and diluted into buffer P1 (50 mM phosphate, pH 7) to a final concentration of 10% DMSO. All further dilutions are done in P2 (P1 with 10% DMSO). Enzyme and compound dilutions are pre-incubated for 10 min at 37 C. and the reaction is started with the addition of pre-warmed (37 C.) nitrocefin at a final concentration of […]. The change in absorption at 490 nm is followed at 37 C. for 10 min with 30 s intervals.
Beta-lactamase TEM, sequence (P62593 whole entry): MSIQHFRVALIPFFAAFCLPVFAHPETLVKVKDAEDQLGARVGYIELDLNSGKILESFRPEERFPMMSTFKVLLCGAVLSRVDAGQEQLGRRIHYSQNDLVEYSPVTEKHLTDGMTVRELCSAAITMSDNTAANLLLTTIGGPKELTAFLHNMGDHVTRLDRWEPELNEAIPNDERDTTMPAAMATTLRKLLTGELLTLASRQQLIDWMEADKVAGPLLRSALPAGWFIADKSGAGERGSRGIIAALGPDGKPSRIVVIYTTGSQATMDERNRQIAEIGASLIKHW

Assay [2] has as its target Beta-lactamase (Escherichia coli K-12, UniProt P00811). Described as §1.

Beta-lactamase, sequence (P00811 whole entry): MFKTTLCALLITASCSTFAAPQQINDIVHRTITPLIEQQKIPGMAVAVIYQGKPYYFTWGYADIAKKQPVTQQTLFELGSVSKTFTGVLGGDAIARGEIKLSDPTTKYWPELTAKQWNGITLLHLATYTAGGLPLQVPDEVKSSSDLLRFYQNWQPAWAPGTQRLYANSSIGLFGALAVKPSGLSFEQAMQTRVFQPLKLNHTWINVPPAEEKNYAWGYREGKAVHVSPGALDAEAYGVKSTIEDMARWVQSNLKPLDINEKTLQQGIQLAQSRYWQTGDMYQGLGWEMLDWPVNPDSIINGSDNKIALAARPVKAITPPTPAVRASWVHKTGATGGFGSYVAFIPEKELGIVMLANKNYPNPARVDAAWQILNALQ

`COC(=O)C1/C(=C2/CC(CI)OC2=O)O[C@@H]2CC(=O)N12` (stereo not given in full): the IC50 (as a rule, the concentration that gives 50% inhibition) amounted to 3.5 nM in assay [1] and 126 nM in assay [2].

For `CC1CC(=C2O[C@@H]3CC(=O)N3C2C(=O)O)C(=O)O1` (single isomer, unassigned), the midpoint of inhibition in assay [2], the IC50, lay at 6080 nM. This lies in the single-digit micromolar range.

The molecule `[N-]=[N+]=NCC1C/C(=C2\O[C@@H]3CC(=O)N3C2C(=O)OCc2ccccc2)C(=O)O1` (stereo not given in full) returned a 50% inhibitory concentration (IC50) in assay [2] of 305 nM.

As to `CC1C/C(=C2\O[C@@H]3CC(=O)N3C2C(=O)OCc2ccccc2)C(=O)O1` (single isomer, unassigned), the half-maximal inhibitory concentration (IC50) in assay [2] was 1070 nM and 301 nM.
